Earlier results on two molecules are cited in PubChem BioAssay AID1259409 (Chemical Carcinogenesis Research Information System (CCRIS), 2018).

The subject of this series is rodent chemically induced tumor inhibition, incidence and multiplicity. The experiment in a line: CCRIS tumor inhibitor studies.

As to `Cc1[nH]cnc1CSCCN=C(NC#N)N(C)N=O`, the “tumour outcome (control, treated, inhibition, significance)” value (Carcinogen: 7,12-DIMETHYLBENZ[A]ANTHRACENE, 57-97-6, Dose [Inhibitor]: 1 G/L IN DRINKING WATER AD LIBITUM BEGINNING 1 WK POST PROMOTER DOSE FOR DURATION OF STUDY (STUDY DURATION: 52 WK), Route [Inhibitor]: ORAL, Species: MOUSE, Strain/Sex: SENCAR/FEMALE, Target Tissue: Type of Lesion: SKIN: CARCINOMA, Dose [Carcinogen]: 120 UG IN 0.2 ML ACETONE ONCE, Promoter: 12-O-TETRADECANOYLPHORBOL-13-ACETATE, 16561-29-8) is listed as 24/30 (80%), 18/25 (72%), 10%, not calculated; the “tumour outcome (control, treated, inhibition, significance)” value (Carcinogen: 7,12-DIMETHYLBENZ[A]ANTHRACENE, 57-97-6, Dose [Inhibitor]: 1 G/L IN DRINKING WATER AD LIBITUM BEGINNING 1 WK POST PROMOTER DOSE FOR DURATION OF STUDY (STUDY DURATION: 52 WK), Route [Inhibitor]: ORAL, Species: MOUSE, Strain/Sex: SENCAR/FEMALE, Target Tissue: Type of Lesion: SKIN: KERATOACANTHOMA, Dose [Carcinogen]: 120 UG IN 0.2 ML ACETONE ONCE, Promoter: 12-O-TETRADECANOYLPHORBOL-13-ACETATE, 16561-29-8) is on record as 16/30 (53%), 8/25 (32%), 40%, p<0.05; the “tumour outcome (control, treated, inhibition, significance)” value (Carcinogen: 7,12-DIMETHYLBENZ[A]ANTHRACENE, 57-97-6, Dose [Inhibitor]: 1 MG/WK BEGINNING 1 WK POST FIRST PROMOTER DOSE FOR DURATION OF STUDY (STUDY DURATION: 52 WK), Route [Inhibitor]: DERMAL, Species: MOUSE, Strain/Sex: SENCAR/FEMALE, Target Tissue: Type of Lesion: SKIN: CARCINOMA, Dose [Carcinogen]: 120 UG IN 0.2 ML ACETONE ONCE, Promoter: 12-O-TETRADECANOYLPHORBOL-13-ACETATE, 16561-29-8) was 24/30 (80%), 23/30 (77%), 4%, not calculated; the “tumour outcome (control, treated, inhibition, significance)” value (Carcinogen: 7,12-DIMETHYLBENZ[A]ANTHRACENE, 57-97-6, Dose [Inhibitor]: 1 MG/WK BEGINNING 1 WK POST FIRST PROMOTER DOSE FOR DURATION OF STUDY (STUDY DURATION: 52 WK), Route [Inhibitor]: DERMAL, Species: MOUSE, Strain/Sex: SENCAR/FEMALE, Target Tissue: Type of Lesion: SKIN: KERATOACANTHOMA, Dose [Carcinogen]: 120 UG IN 0.2 ML ACETONE ONCE, Promoter: 12-O-TETRADECANOYLPHORBOL-13-ACETATE, 16561-29-8) is 16/30 (53%), 15/30 (50%), 6%, not calculated; the “tumour outcome (control, treated, inhibition, significance)” value (Carcinogen: 7,12-DIMETHYLBENZ[A]ANTHRACENE, 57-97-6, Dose [Inhibitor]: 1130 PPM IN DRINKING WATER BEGINNING 1 WK POST LAST CARCINOGEN DOSE (STUDY DURATION: 14 MO), Route [Inhibitor]: ORAL, Species: MOUSE, Strain/Sex: B6D2F1/FEMALE, Target Tissue: Type of Lesion: LUNG: TUMOR, Dose [Carcinogen]: 1 MG IN OLIVE OIL 1/WK FOR 4 WK, Promoter: NONE USED) was 11/27 (41%), 13/23 (56%), -37%, not calculated; the “tumour outcome (control, treated, inhibition, significance)” value (Carcinogen: 7,12-DIMETHYLBENZ[A]ANTHRACENE, 57-97-6, Dose [Inhibitor]: 1130 PPM IN DRINKING WATER BEGINNING 1 WK POST LAST CARCINOGEN DOSE (STUDY DURATION: 14 MO), Route [Inhibitor]: ORAL, Species: MOUSE, Strain/Sex: B6D2F1/FEMALE, Target Tissue: Type of Lesion: LYMPHOID TISSUE: NEOPLASMS, Dose [Carcinogen]: 1 MG IN OLIVE OIL 1/WK FOR 4 WK, Promoter: NONE USE) is reported as 12/29 (41%), 12/28 (43%), -4%, not calculated. Moreover, the “tumour outcome (control, treated, inhibition, significance)” value runs as follows: (Carcinogen: 7,12-DIMETHYLBENZ[A]ANTHRACENE, 57-97-6, Dose [Inhibitor]: 1130 PPM IN DRINKING WATER BEGINNING 1 WK POST LAST CARCINOGEN DOSE (STUDY DURATION: 14 MO), Route [Inhibitor]: ORAL, Species: MOUSE, Strain/Sex: B6D2F1/FEMALE, Target Tissue: Type of Lesion: MAMMARY GLAND: TUMOR, Dose [Carcinogen]: 1 MG IN OLIVE OIL 1/WK FOR 4 WK, Promoter: NONE USED) 7/29 (24%), 7/28 (25%), -4%, not calculated; (Carcinogen: URETHANE, 51-79-6, Dose [Inhibitor]: 1000 PPM IN DRINKING WATER BEGINNING 10 WK POST LAST CARCINOGEN DOSE (STUDY DURATION: 14 MO), Route [Inhibitor]: ORAL, Species: MOUSE, Strain/Sex: BALB/MALE, Target Tissue: Type of Lesion: LUNG: TUMOR, Dose [Carcinogen]: 1 G/KG 1/WK FOR 2 WK, Promoter: NONE USED) 20/20 (100%), 17/17 (100%), 0%, not calculated; (Carcinogen: URETHANE, 51-79-6, Dose [Inhibitor]: 1800 PPM IN DRINKING WATER BEGINNING 10 WK POST LAST CARCINOGEN DOSE (STUDY DURATION: 14 MO), Route [Inhibitor]: ORAL, Species: MOUSE, Strain/Sex: BALB/MALE, Target Tissue: Type of Lesion: LUNG: TUMOR, Dose [Carcinogen]: 1 G/KG 1/WK FOR 2 WK, Promoter: NONE USED) 20/20 (100%), 17/17 (100%), 0%, not calculated.

With `CC(=O)Nc1ccc(O)cc1`, the “tumour outcome (control, treated, inhibition, significance)” value by setting is: (Carcinogen: 4-(METHYLNITROSAMINO)-1-(3-PYRIDYL)-1-BUTANONE, 64091-91-4, Dose [Inhibitor]: 0, 1520 MMOL/KG BW/D IN DIET FOR DURATION OF STUDY BEGINNING 2 WK PRIOR TO CARCINOGEN TREATMENT (STUDY DURATION: 25 WK), Route [Inhibitor]: ORAL, Species: MOUSE, Strain/Sex: STRAIN-A/FEMALE, Target Tissue: Type of Lesion: LUNG:TUMOR, Dose [Carcinogen]: 2.2 MMOL/KG BW (TOTAL DOSE) ADMINISTERED IN DRINKING WATER FOR 7 WK, Promoter: NONE USED) 29/29 (100%), 25/25 (100%), 0%, not significant; (Carcinogen: N-ETHYL-N-HYDROXYETHYLNITROSAMINE, 13147-25-6, Dose [Inhibitor]: 1.3% IN DIET BEGINNING 1 WK AFTER LAST CARCINOGEN TREATMENT AND CONTINUING THROUGH DURATION OF STUDY (STUDY DURATION: 32, Route [Inhibitor]: ORAL, Species: RAT, Strain/Sex: F344/MALE, Target Tissue: Type of Lesion: KIDNEY: ADENOMA, Dose [Carcinogen]: 0.1% IN DRINKING WATER FOR 2 WK AT BEGINNING OF STUDY, Promoter: NONE USED) 5/23 (22%), 15/27 (56%), -154%, p<0.01; (Carcinogen: N-ETHYL-N-HYDROXYETHYLNITROSAMINE, 13147-25-6, Dose [Inhibitor]: 1.3% IN DIET BEGINNING 1 WK AFTER LAST CARCINOGEN TREATMENT AND CONTINUING THROUGH DURATION OF STUDY (STUDY DURATION: 32, Route [Inhibitor]: ORAL, Species: RAT, Strain/Sex: F344/MALE, Target Tissue: Type of Lesion: LIVER: HEPATOCELLULAR CARCINOMA, Dose [Carcinogen]: 0.1% IN DRINKING WATER FOR 2 WK AT BEGINNING OF STUDY, Promoter: NONE USED) 11/23 (48%), 3/27 (11%), 77%, p<0.05. Further, the outcome (Carcinogen: N-ETHYL-N-HYDROXYETHYLNITROSAMINE, 13147-25-6, Dose [Inhibitor]: 1.3% IN DIET BEGINNING 1 WK AFTER LAST CARCINOGEN TREATMENT AND CONTINUING THROUGH DURATION OF STUDY (STUDY DURATION: 32, Route [Inhibitor]: ORAL, Species: RAT, Strain/Sex: F344/MALE, Target Tissue: Type of Lesion: KIDNEY: ADENOCARCINOMA, Dose [Carcinogen]: 0.1% IN DRINKING WATER FOR 2 WK AT BEGINNING OF STUDY, Promoter: NONE USED) is listed as 0/23 (0%), 1/23 (4%), not significant.
